TGI and GI50 data for 32 compounds are collected here from PubChem BioAssay (NCI).

Assay in all cases: NCI tumour cell line growth inhibition, 48 h
Test [1] deals with HS 578T breast.
Test [2] deals with MDA-MB-231 breast.
Test [3] concerns MDA-MB-435.
For test [4], the system named is MDA-N.
In test [5] the test system is SK-MEL-5 melanoma.
The test system of test [6] is SR leukemia.
Test [7] deals with T-47D breast.
Test [8] concerns TK-10 renal.
For test [9], the system named is UACC-62 melanoma.

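Five compound concentrations were applied to cells in 96-well plates for 48 hours; endpoints were derived by simple linear interpolation of the resulting dose-response curve. The concentration for 50% growth inhibition is given as GI50. The concentration for full growth arrest is given as TGI.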 Bounds are passed on as bounds.

For the compound `COc1cc(/C=C/C(=O)c2c(=O)o[nH][n+]2-c2ccccc2)ccc1[O-]`, the TGI in test [1] came out at 9.6 µM; in [2], 12.4 µM; in test [3] it was 9.24 µM; in test [4], 6.25 µM; in [5], 15 µM; in test [6] it was 4.54 µM. For the same compound, the TGI stood at 11.7 µM in [7], 10.5 µM in test [8] and 13.7 µM in test [9].

For the compound `COC(=O)[C@H]1[C@@H](C(C)C)O[C@@H](C(C)C)O[C@H]1C(F)(F)F`, the TGI in test [1], in test [2], in [3], in [4], in [5] and in [6] was > 100 µM throughout. Besides, the TGI in [7], in [8] and in test [9] was > 100 µM in each case.

On to `O=C1CCC2(CCO1)OCCO2`, for which the TGI in test [1], in test [2], in test [3], in [4], in test [5] and in test [6] was > 100 µM in each case. Further, the TGI in test [7], in [8] and in test [9] was > 100 µM throughout.

On to `C[C@@H](O)C(=O)N1[C@@H]2CC3CC[C@]2(CS1(=O)=O)C3(C)C`, for which the TGI in [2] was > 100 µM; in [3], > 100 µM; in test [5], > 100 µM; in [6] it was 58.5 µM; in [7] it was > 100 µM; in test [8], > 100 µM. The TGI in test [9] is > 100 µM.

For the compound `Cc1ccc(C2=NOC(=O)[C@@H]3CCCC[C@@H]23)cc1`, the TGI in [1], in test [2], in test [3], in test [4], in [5] and in test [6] was > 100 µM in each case. Further, the TGI in [7], in test [8] and in test [9] was > 100 µM in each case.

In the case of `O=[N+]([O-])c1ccc2nc(-c3ccccn3)c(-c3ccccn3)nc2c1`, the TGI in test [1], in test [3], in test [4], in test [5], in test [6] and in test [7] was > 100 µM each time. Besides, the TGI in test [8] and in [9] was > 100 µM in each case.

As to `CC1(C)OCC(C(O)C2OC(C)(C)OC2C=O)O1` (configuration not stated), the TGI in [1], in test [2], in test [3], in [4], in test [5] and in test [6] was > 100 µM each time. Further, the TGI in test [8] and in [9] was > 100 µM in each case.

Turning to `NC(=S)N/N=C\c1ccc(OCc2cccc(COc3ccc(/C=N/NC(N)=S)cc3)n2)cc1`, the TGI is > 100 µM in test [1]; 76 µM in test [2]; > 100 µM in test [3]; > 100 µM in test [4]; 24.4 µM in test [5]; > 100 µM in test [6]. Also, the TGI in test [7] is 0.921 µM; in test [8], > 100 µM.

Take `CCNc1ccc2c(c1)Cc1ccccc1-2`: the TGI in test [1], in test [2], in test [3], in [5], in test [6] and in test [7] was > 100 µM each time. Moreover, the TGI in test [8] and in test [9] was > 100 µM each time.

In the case of `CC(=O)OCC1OC(n2c3c(c(-c4cccc5ccccc45)c(C#N)c2=S)CCCC3)C(OC(C)=O)C(OC(C)=O)C1OC(C)=O` (configuration not stated), the TGI in test [2], in [3], in [4], in test [5], in test [6] and in test [7] was > 100 µM in each case. Further, the TGI in [8] and in test [9] was > 100 µM each time.

Consider `Nc1nc(-c2ccccc2N=NN2CCCC2)nc2ccccc12`, for which the TGI came out at 18 µM in test [1]; 3.63 µM in test [2]; 6.7 µM in [3]; 17.8 µM in test [5]; 2.38 µM in test [6]; 19.4 µM in [7]. For the same compound, the TGI in [8] was determined as 14.5 µM; in test [9], 3.77 µM.

`COc1cccc(CC(C)NCC(O)c2ccc(O)c(O)c2)c1` (configuration not stated): the TGI in [1] is > 100 µM; in test [2], 60.1 µM; in [3] it was > 100 µM; in [5], > 100 µM; in [6], 67.4 µM; in test [7], > 100 µM. Also, the TGI in test [8] and in test [9] was > 100 µM each time.

For the compound `C/C(=C\c1ccccn1)c1ccccn1`, the TGI in test [1], in [2], in [3], in test [4], in test [5] and in test [8] was > 100 µM each time. Besides, in [9], the TGI is > 100 µM.

On to `O=[N+]([O-])c1c(Br)cc(Br)c2c1Nc1c(ccc(Cl)c1Cl)S2`, for which the TGI in [1] is > 100 µM; in test [2] it was 26.6 µM; in test [3], 31.5 µM; in [5], 30.2 µM; in test [6] it was > 26.8 µM; in [7], 29.9 µM. The results for the TGI in test [8] and in test [9] were 37.1 µM and 33.1 µM, respectively.

As to `C/C=C\C(CC(=O)NCCc1cn(C(=O)OCc2ccccc2)c2ccccc12)CC(=O)OC` (configuration not stated), the TGI in test [1], in test [2], in test [3], in test [4], in test [5] and in [8] was > 100 µM throughout. In addition, the TGI in test [9] is > 100 µM.

As to `CCOC(=O)C(=[N+]=[N-])C(=O)Nc1nn2nnnc2c2ccccc12`, the TGI in [2], in [3], in [4], in test [5], in test [6] and in [9] was > 100 µM each time.

Regarding `N=c1oc2ccc3ccccc3c2cc1C(N)=O`, the TGI was 54.6 µM in [1]; > 100 µM in [2]; > 100 µM in test [3]; > 100 µM in [4]; > 100 µM in test [5]; > 100 µM in test [6]. Besides, the TGI in test [7] was 99.7 µM; in [9] it was > 100 µM.

As to `COC1OC(Cc2nnc(C)o2)C(OCc2ccccc2)C(OCc2ccccc2)C1OCc1ccccc1` (configuration not stated), the TGI is > 100 µM in test [1]; > 100 µM in test [2]; 39.2 µM in [3]; 30 µM in [5]; 29.6 µM in [6]; > 100 µM in test [7]. The compound further returned a TGI in [9] of 32.3 µM.

As to `O=C(CCN1CCCC1)Nc1ccc2sc3ccccc3c(=O)c2n1`, the TGI amounted to 18.2 µM in test [1]; 18.6 µM in test [2]; 17.8 µM in test [3]; 20.1 µM in test [4]; 16.4 µM in [5]; 23.7 µM in test [6]. The values for the TGI in [7] and in [9] were > 31.6 µM and 17.2 µM, respectively.

As to `CC[N+]1(C)CCC(O)(/C=C/c2ccc(OC)cc2)C(C(=O)/C=C/c2ccc(OC)cc2)C1` (configuration not stated), the TGI is > 85 µM in test [1]; > 53.9 µM in [2]; 28.2 µM in test [3]; > 50.1 µM in test [4]; 31.9 µM in test [5]; 24.6 µM in [7]. In addition, the TGI amounted to 11.6 µM in test [8] and 43.8 µM in test [9].

In the case of `c1ccc(CCN2CCc3[nH]c4ccccc4c3C2)cc1`, the TGI in [2] turned out to be 87.7 µM; in [3], 36 µM; in [5], 33.9 µM; in test [6] it was 75.7 µM; in test [7], 51.5 µM; in [8] it was 51.7 µM. In [9], the TGI is > 10 µM.

With `COc1cc2nc(-c3ccc4ccccc4c3)[nH]c(=O)c2cc1OC`, the TGI in [1], in [2], in test [4], in test [5], in [6] and in [7] was > 100 µM each time. In addition, in [9], the TGI was > 100 µM.

In the case of `Cc1cc(O)c(C(C)C)cc1SC#N`, the TGI came to 67.4 µM in test [1]; 37.9 µM in test [2]; 27 µM in [3]; 42.7 µM in [5]; 65 µM in test [7]; 31.8 µM in test [8]. In addition, in [9], the TGI was determined as 28.7 µM.

`CN(C)CCNC(=O)c1ccc(NCCCN(C)CCCNc2ccc3c(=O)n(CCN(C)C)c(=O)n4c5ccccc5c(=O)c2c34)c2c(=O)c3ccccc3[nH]c12`: the TGI worked out at 0.234 µM in [2]; 0.18 µM in test [3]; 0.199 µM in test [4]; 1.22 µM in test [5]; 1.89 µM in [7]; 0.687 µM in test [8]. In test [9], this compound yielded a TGI of 0.239 µM.

As to `Cn1nc2n(c1=O)CCCN2`, the TGI in [1], in test [2], in test [3], in test [4], in test [5] and in test [6] was > 100 µM each time. Also, in test [8], the TGI was > 100 µM.

As to `COc1ccc(/C=c2\[nH]c3nc(=O)c(N4CCOCC4)c(N)n3c2=O)cc1`, the TGI in test [1], in test [2], in test [3], in [4], in test [5] and in test [6] was > 100 µM in each case. Besides, the TGI in test [7] and in test [8] was > 100 µM in each case.

As for `CCCCc1cc2c(C)cc(=O)oc2c(O)c1O`, the TGI in test [1] is 59.5 µM; in [2], 28 µM; in test [3] it was > 100 µM; in [4] it was > 100 µM; in test [5], 46.5 µM; in test [6], 40.2 µM. For the same compound, the values for the TGI in test [7] and in test [8] were 82.3 µM and > 100 µM, respectively.

As for `CC(=O)O[C@@H]1C[C@@]23C[C@@]24CC[C@H](OC2OCC(O)C(O)C2O)C(C)(C)[C@@H]4CC=C3[C@]2(C)C[C@@H]3OC4(C[C@@H](C)[C@@H]3[C@@]12C)OC(O)[C@@]1(C)O[C@@H]41` (some centres not stated), the TGI in test [1] is > 100 µM; in test [2], 44 µM; in [3], > 100 µM; in [4] it was > 100 µM; in test [5], 42.7 µM; in [7], 97.7 µM. In addition, the TGI in [8] is > 100 µM; in [9] it was 54.8 µM.

Take `Cc1cc(/C=C\c2ccc3ccccc3[n+]2C)c(O)c2ncccc12`: the GI50 in [1] was 0.681 µM; in test [2], 0.259 µM; in test [3], 0.0875 µM; in [6] it was 0.168 µM; in test [7] it was 0.835 µM; in [8], 0.814 µM. In addition, in [9], the GI50 is 0.207 µM. In addition, the TGI in test [1] was 7.5 µM; in test [2] it was 1.9 µM; in test [3] it was 0.523 µM; in test [6] it was > 100 µM; in test [7], 5.68 µM; in [8], 6.54 µM. In addition, in [9], the TGI came out at 2.62 µM.

As for `CN(C)c1nc(N(C)C)nc(N(C)C23CC4CC(CC(C4)C2)C3)n1`, the TGI in test [2] was 77.4 µM; in test [3] it was > 100 µM; in [4] it was 53.7 µM; in test [6], > 100 µM; in test [7], > 100 µM; in test [9], > 100 µM.

As for `N=C1N(S(=O)(=O)c2ccccc2)[C@@H](Cc2ccccc2)[C@H](c2ccccc2)C1(c1ccccc1)c1ccccc1`, the TGI in test [1], in test [2], in test [3], in [4], in test [5] and in test [6] was > 100 µM throughout. For the same compound, the TGI in test [8] and in [9] was > 100 µM in each case.

On to `COc1cc2c(cc1OCCCC(=O)Nc1cc(C(=O)Nc3cc(C(=O)Nc4cc(C(=O)NCCCN(C)C)n(C)n4)n(C)n3)n(C)n1)N=CC1CCCN1C2=O` (configuration not stated), for which the TGI in test [1] was 79.7 µM; in [2], 55.5 µM; in test [3], 44.9 µM; in test [5] it was 47.4 µM; in test [7], > 100 µM; in test [8], 40.7 µM. This compound gave a TGI in test [9] of 40.6 µM.
